Measured values published in patent US20230277553A1, “THERAPEUTIC COMPOSITION OF CURE-PRO COMPOUNDS FOR TARGETED DEGRADATION OF BET DOMAIN PROTEINS, AND METHODS OF MAKING AND USAGE” (CORNELL UNIVERSITY, priority 2020, published 2023).
Entries after “also recorded” stand apart in the source; their conditions may differ.

Assays:
BRD4 [1] = target: T1, BRD4 (Homo sapiens, UniProt O60885); experiment: CURE-PRO-mediated BRD4 degradation with VHL ligands, WES (ProteinSimple), MCF7 cells; format: cell-based; set-up: endogenous in cells; conditions: MCF7, 10 μM each
Protocol: All cell lines were purchased from ATCC or DSMZ and grown at 37° C. with 5% CO2. Human HeLa cells were cultured in complete growth medium (Dulbecco's modified Eagle's medium (DMEM) supplemented with 10% FBS); MCF7 cells were cultured in complete growth medium (Dulbecco's modified Eagle's medium (DMEM) supplemented with 10% FBS and 0.01 mg/ml human recombinant insulin (Sigma Aldrich); Namalwa and MOLM-13 cells were cultured in complete growth medium (RPMI 1640 medium supplemented with 10% FBS); MV-4-11 were cultured in complete growth medium (Iscove's Modified Dulbecco's medium, supplemented with 10% FBS); HCT116 cells were cultured in complete growth medium (McCoy's 5a Medium supplemented with 10% FBS). For cellular degradation of BRD4 studies, cells were seeded in a 12-well plate at 70-80% confluency, allowed to attach overnight, and incubated with the indicated compounds for the indicated time. When indicated, a 15-minute pretreatment with 10 μM pomalidomide, 10 μM VHL298, 10 μM Nutlin3a, 1 μM MG-132 or 1 μM Carfilzomib was performed before the addition of CURE-PROs. For washout studies, after CURE-PRO treatment, media was aspirated and incubated with complete medium for the indicated time before lysis.
WES Simple analysis was performed on WES system (ProteinSimple-Biotechne) according to the manufacturer's instructions. Total protein concentrations of cell lysates were determined by the Pierce BCA kit (Thermo Fisher). 3 μL of 0.3 μg/μL of the protein lysate was loaded onto a 12- to 230-kDa WES assay plate (ProteinSimple) where 300 nL sample was withdrawn through a capillary, subjected to electrophoretic separation of proteins by size, and followed by the simultaneous, HRP-based detection of proteins using the Anti-Rabbit Detection Module (Proteinsimple: #DM-001). The electropherograms were checked then the automatic peak detection was manually corrected if it was required.
MCF7 cells (3×10^6) were treated for 4-24 hours continually (FIG. 72), or treated for 4h, washed and incubated for a further 4-24 h with the compounds solubilized in DMSO. Compounds were added at 10 μM each. Cells were washed, lysed, and clarified by centrifugation. The total protein concentration was quantified by the BCA method (ThermoFisher Sciences). Standardized protein samples were electrophoresed and imaged as described in the WES Proteinsimple section above. FIG. 69 depicts the CURE-PRO-mediated BRD4 degradation for the BRD-E50 monomer, and VHL ligand, 8305.
MCF7 cells (3×10^6) were treated for 24 hours with the compounds solubilized in DMSO. CURE-PRO monomers were added at 10 μM each and the proteasomal inhibitors at 1 μM. Standardized protein samples were electrophoresed and imaged as described in the WES Proteinsimple section above. FIGS. 73 and 75 depicts the dependence of the proteasome for CURE-PRO-mediated BRD4 degradation.
MCF7 cells (3×10^6) were treated for 24 hours with the compounds solubilized in DMSO. CURE-PRO monomers were added at 10 μM. FIG. 74 depicts the CURE-PRO-mediated BRD4 degradation for the BRD-E50 monomer, and VHL ligand, 8305 combined in a 1:1 ratio after 24 h.

BRD4 [2] = target: T1, BRD4; experiment: CURE-PRO-mediated BRD4 degradation, Western blot, HeLa cells; format: cell-based; set-up: endogenous in cells; host or cells: HeLa; conditions: 24 h, Western blot
Outline: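 HeLa cells treated 24 h with compounds in DMSO (1-10 μM, 10 μM or 100 μM each; paired monomers combined 1:1), optional 15-min pretreatment with pomalidomide, VHL298, Nutlin3a (10 μM) or MG-132/carfilzomib (1 μM). RIPA lysates, 10-20 μg protein immunoblotted for BRD4 with β-actin, ECL detection.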

SMILES	BRD4 degradation, with VHL ligand 8304 (WES) (BRD4 [1])	BRD4 degradation, with VHL ligand 8305 (WES) (BRD4 [1]; 1:1 with 8305, 4-24 h, with washout where stated)	BRD4 degradation, co-treatment with CRBN ligand 8046 (BRD4 [2]; 1:1 with 8046, 10 μM each)	BRD4 degradation, co-treatment with CRBN ligand 8066 (BRD4 [2]; 1:1 with 8066, 10 μM each (BRD-E10: 10 and 100 μM))	BRD4 degradation, co-treatment with CRBN ligand 8048 (BRD4 [2]; 1:1 with 8048, 1-10 μM each)	BRD4 degradation, co-treatment with CRBN ligand 8049 (BRD4 [2]; 1:1 with 8049, 1-10 μM each)	BRD4 degradation, BRD ligand alone (BRD4 [2]; BRD monomer alone)
CCNC(=O)C[C@@H]1N=C(c2ccc(Cl)cc2)c2cc(OCCCCC(=O)Nc3cccc(B(O)O)c3)ccc2-n2c(C)nnc21 [BRD-E20, (3-(5-(((4S)-6-(4-chlorophenyl)-4-(2-(ethylamino)-2-oxoethyl)-1-methyl-4H-benzo[f][1,2,4]triazolo[4,3-a][1,4]diazepin-8-yl)oxy)pentanamido)phenyl)boronic acid]	failed to induce BRD4 degradation	caused BRD4 degradation; also recorded: marked BRD4 degradation	causes degradation of BRD4; also recorded: Degradation is noted	causes degradation of BRD4; also recorded: Degradation is noted	–	–	–
CCNC(=O)C[C@@H]1N=C(c2ccc(Cl)cc2)c2cc(OCCOCCNC(=O)c3cccc(O)c3O)ccc2-n2c(C)nnc21 [BRD-N39, N-(2-(2-(((4S)-6-(4-chlorophenyl)-4-(2-(ethylamino)-2-oxoethyl)-1-methyl-4H-benzo[f][1,2,4]triazolo[4,3-a][1,4]diazepin-8-yl)oxy)ethoxy)ethyl)-2,3-dihydroxybenzamide]	–	–	–	–	causes degradation of BRD4; also recorded: Degradation is noted	no evidence of BRD4 degradation	no degradation of BRD4
